Measured values reported in patent publication US10479814B2, “Adenosine receptor activation reagent and the uses of thereof” (Zhejiang Subtropical Crops Research Institute, priority 2014, dated 2019).
Entries after “also recorded” stand apart in the source; their conditions may differ.

Columns and labels:
Type in all cases: in vivo
[1] = test system: myeloperoxidase (MPO) activity in mouse renal cortex; experiment: kidney ischemia reperfusion: MPO analysis; details: vs IR group, P<0.05; HEA 5 and 7.5 mg/kg; DPCPX 1 mg/kg; DPCPX 1 mg/kg+HEA 5 mg/kg
Method: Male C57BL/6 mice 20-25 g, after one week of adaptive feeding to the animals, were randomly divided into eight groups: sham-operation group, IR group, HEA 5 mg/kg group, HEA 7 mg/kg group, HEA 10 mg/kg group, DPCPX (1 mg/kg) group, DPCPX (1 mg/kg)+HEA (5 mg/kg) group and DPCPX (1 mg/kg)+HEA (7.5 mg/kg) group. The mouse was weighed before operation, then peritoneally injected with pentobarbital sodium 50 mg/kg to anaesthetize the mouse, abdomen was opened by ventromedial incision, blunt dissection and the kidney pedicle was sufficiently exposed, renal ischemia was induced by clapping two side kidney pedicle with non-invasive bulldog clamp, the color of kidney change from bright red to purple black immediately, determination method of success of the experiment model can refer to the methods in literature 7 and 8. At time of 30 min of ischemia the bulldog clamp was loosened, the perfuse was restored, the color of kidney changed gradually from dark red to bright red, showing re perfusion was successful. The wound was stitched. The animals were freely fed water and food. In the sham-operation group, the mice only received operation of abdomen open, kidney pedicle and abdomen suture. […] 9.2.6 Real time quantitative PCR analysis of gene expression of ICAM-1, TNF-α and IL-1β; the sequence of primer used in RT-PCR reaction system is as follow: […]

[2] = test system: rat middle cerebral artery distal obstruction cerebral ischemia model; experiment: dMCAO cerebral ischemia: neurologic function score
Method: Using rat middle cerebral artery distal obstruction cerebral ischemia model. (1) according to rat weight, 10% chloral hydrate (3 ml/kg) was peritoneally injected to anaesthetize. […]
3.3.1 the neurologic function score of the animal in conscious were scored for the rat behaviour according to the Neurological Defects 4 Score in 5 Grade Method by Longa E Z et al ^[4] : 0 point: no significant neurologic function impairment; 1 point: unable to stretch forelimbs on opposite sides; 2 point: rolling to the opposite side when walking; 3 point: duping to the opposite side when walking; 4 point: unable to spontaneously walk, and loss of consciousness.

[3] = test system: IL-1β mRNA in mouse renal cortex; experiment: kidney ischemia reperfusion: real time quantitative PCR of IL-1β; details: vs IR group; HEA 5, 7.5, 10 mg/kg; DPCPX 1 mg/kg; DPCPX 1 mg/kg+HEA
Method: Male C57BL/6 mice 20-25 g, after one week of adaptive feeding to the animals, were randomly divided into eight groups: sham-operation group, IR group, HEA 5 mg/kg group, HEA 7 mg/kg group, HEA 10 mg/kg group, DPCPX (1 mg/kg) group, DPCPX (1 mg/kg)+HEA (5 mg/kg) group and DPCPX (1 mg/kg)+HEA (7.5 mg/kg) group. […]
The MPO analysis was conducted according to the specification in the kit. 9.2.6 Real time quantitative PCR analysis of gene expression of ICAM-1, TNF-α and IL-1β; the sequence of primer used in RT-PCR reaction system is as follow:
PCR amplification reaction system: IQ SYBR Green Super mix 12.5 μL, Forward primer (10 μmo/L) 1 μL, Reverse primer (10 μmol/L) 1 μL, cDNA (water was added to dilute to same level) 10.5 μL. […] The statistics and calculation of experiment results was automatically conducted fluorescence quantitative PCR analyzing software BIO-RAD CFX Manager. Target gene mRNA expression level was calculated by 2-ΔΔCt method, and standardized using the GAPDH mRNA in corresponding specimen a standard.

| Compound | myeloperoxidase (MPO) activity in renal cortex [1] | neurologic function score ([2]; dMCAO rat, HEA 5, 7.5, 12 mg/kg ip (7.5 mg/kg) 30 min before operation, vs model group) | IL-1β mRNA expression in renal cortex [3] | antagonism of the protective effects of HEA in dMCAO ([2]; HEA 7.5 mg/kg + DPCPX 1 mg/kg ip, all dMCAO readouts) |
| --- | --- | --- | --- | --- |
| OCCNc1ncnc2c1ncn2[C@@H]1O[C@H](CO)[C@@H](O)[C@H]1O [HEA, N(6)-(2-hydroxyethyl)-adenosine] | significantly reduced | significantly improve neurological symptom of dMCAO rat; also recorded: significantly improve neurological function of the injured brain | significantly reduce the high expression | – |
| CCCn1c(=O)c2[nH]c(C3CCCC3)nc2n(CCC)c1=O [DPCPX, reference compound] | significantly increase MPO activity | – | significantly increase | may be antagonized |
